The source of these data is PubChem BioAssay (NCI).

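Assay format: 96-well plates, 48-hour exposure. At the GI50, growth is halved. At the TGI there is no net growth.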

Some test systems named below: DMS 273 small cell lung; HOP-62 NSCLC; SK-MEL-2 melanoma; NCI-H522 lung; M14 melanoma; A498 renal; OVCAR-8 ovarian; OVCAR-4 ovarian; SF-295 CNS; LXFL 529 NSCLC.
What all share (assay): NCI tumour cell line growth inhibition, 48 h

Regarding `CC(=O)C1CCN(c2ccccc2)C1` (stereo not given), the TGI with DMS 273 small cell lung, in the test with HOP-62 NSCLC, in the test on SK-MEL-2 melanoma, with NCI-H522 lung, with M14 melanoma and in the test on A498 renal was above 100 µM in each case. In addition, the TGI with OVCAR-8 ovarian, in the test with OVCAR-4 ovarian and in the test on SF-295 CNS was above 100 µM throughout.
In the case of `O=C1C(c2ccccc2)=C(c2ccccc2)C(c2ccc(Cc3ccc(C4=C(c5ccccc5)C(=O)C(c5ccccc5)=C4c4ccccc4)cc3)cc2)=C1c1ccccc1`, the TGI in the test on DMS 273 small cell lung, in the test on HOP-62 NSCLC, in the test on SK-MEL-2 melanoma, with NCI-H522 lung, in the test on A498 renal and with OVCAR-8 ovarian was above 100 µM in each case. Also, the TGI with OVCAR-4 ovarian and in the test with SF-295 CNS was above 100 µM in each case.
As for `O=C(CS(=O)(=O)c1nc2ccccc2nc1-c1ccccc1)Nc1ccc(F)cc1`, the GI50 with HOP-62 NSCLC is above 100 µM; in the test on SK-MEL-2 melanoma, 51.9 µM; with NCI-H522 lung it was 48.2 µM; in the test with M14 melanoma it was above 100 µM; in the test on A498 renal it was 21.6 µM; with OVCAR-8 ovarian, 94.3 µM. Moreover, the GI50 in the test with OVCAR-4 ovarian was 21.6 µM; in the test with SF-295 CNS it was above 100 µM. For the same molecule, the TGI in the test with HOP-62 NSCLC, in the test on SK-MEL-2 melanoma, with NCI-H522 lung, in the test with M14 melanoma, in the test on A498 renal and with OVCAR-8 ovarian was above 100 µM in each case. Moreover, the values for the TGI with OVCAR-4 ovarian and with SF-295 CNS were 49.4 µM and above 100 µM, respectively.
On to `CCN(CC)c1ccc(/C=C/C(=O)c2ccc(Nc3nc(Nc4ccccc4)nc(Nc4ccccc4)n3)cc2)cc1`, for which the GI50 is 2.55 µM in the test on HOP-62 NSCLC; 4.04 µM in the test on SK-MEL-2 melanoma; 5.94 µM in the test on NCI-H522 lung; 3.02 µM in the test on M14 melanoma; 7.44 µM in the test with A498 renal; 9.95 µM in the test with OVCAR-8 ovarian. The GI50 in the test on OVCAR-4 ovarian is 32.3 µM; in the test on SF-295 CNS, 1.41 µM. The TGI with HOP-62 NSCLC was 28.1 µM; in the test with SK-MEL-2 melanoma, 85.2 µM; in the test with NCI-H522 lung, above 100 µM; with M14 melanoma, above 100 µM; in the test on A498 renal, 48 µM; with OVCAR-8 ovarian, above 100 µM. For the same molecule, the TGI in the test with OVCAR-4 ovarian was above 100 µM; with SF-295 CNS, 23.3 µM.
On to `CCOC(=O)c1c(-c2ccccc2)[n+](=O)c2cc(Cl)c(Cl)cc2n1[O-]`, for which the GI50 in the test on HOP-62 NSCLC is 4.06 µM; in the test on SK-MEL-2 melanoma it was 18.9 µM; with NCI-H522 lung, 14.2 µM; with M14 melanoma, 13.3 µM; in the test on A498 renal, 18.4 µM; in the test on OVCAR-8 ovarian it was 2.8 µM. The GI50 in the test with OVCAR-4 ovarian is 2.48 µM; in the test with SF-295 CNS, 4.17 µM. For the same molecule, the TGI is 18.9 µM in the test with HOP-62 NSCLC; above 100 µM in the test on SK-MEL-2 melanoma; above 100 µM with NCI-H522 lung; 27.9 µM with M14 melanoma; 33.9 µM in the test on A498 renal; 8.01 µM with OVCAR-8 ovarian. In addition, the figures for the TGI in the test on OVCAR-4 ovarian and with SF-295 CNS were 6.62 µM and 15.9 µM, respectively.
Consider `N#CCn1c(=O)c(Oc2ccc(F)cc2F)cc2cnc(NC3CCOCC3)nc21`, for which the GI50 is above 25 µM in the test on HOP-62 NSCLC; above 25 µM in the test with SK-MEL-2 melanoma; 15 µM in the test with NCI-H522 lung; above 25 µM in the test on M14 melanoma; 24.7 µM in the test with A498 renal; above 25 µM in the test with OVCAR-8 ovarian. Further, the results for the GI50 in the test with OVCAR-4 ovarian and in the test with SF-295 CNS were above 24 µM and above 25 µM, respectively. Also, the TGI in the test on HOP-62 NSCLC, in the test on SK-MEL-2 melanoma, in the test on NCI-H522 lung, with M14 melanoma, in the test on A498 renal and in the test on OVCAR-8 ovarian was above 25 µM in each case. Besides, the TGI in the test on OVCAR-4 ovarian and with SF-295 CNS was above 25 µM throughout.
Regarding `COc1cc(CNCCCCCCN2C(=O)c3cccc4cccc(c34)C2=O)ccc1O`, the GI50 in the test on HOP-62 NSCLC was 5.78 µM; in the test on SK-MEL-2 melanoma it was 5.56 µM; with NCI-H522 lung, 2.32 µM; with M14 melanoma, 1.97 µM; in the test on A498 renal it was 0.735 µM; with OVCAR-8 ovarian, 4.73 µM. Moreover, the GI50 in the test on OVCAR-4 ovarian was 6.14 µM; in the test on SF-295 CNS it was 9.13 µM. Besides, the TGI in the test on HOP-62 NSCLC turned out to be 19.1 µM; with SK-MEL-2 melanoma, 18.2 µM; in the test with NCI-H522 lung, 7.97 µM; in the test with M14 melanoma, 3.85 µM; with A498 renal, 21 µM; in the test on OVCAR-8 ovarian, 21.3 µM. Also, the TGI in the test on OVCAR-4 ovarian amounted to 19.2 µM; in the test with SF-295 CNS it was 25.4 µM.
`O=C1NC(=NCc2ccccc2Cl)S/C1=C\c1ccc2ncccc2c1`: the GI50 was 16 µM in the test with HOP-62 NSCLC; 8.5 µM with SK-MEL-2 melanoma; 4.75 µM with NCI-H522 lung; 16.3 µM in the test on M14 melanoma; 4.21 µM in the test on A498 renal; above 25 µM with OVCAR-8 ovarian. The GI50 was 14.7 µM with OVCAR-4 ovarian and 9.59 µM with SF-295 CNS. Also, the TGI in the test with HOP-62 NSCLC was above 25 µM; with SK-MEL-2 melanoma, above 22.3 µM; in the test with NCI-H522 lung, above 17.9 µM; with M14 melanoma, above 25 µM; in the test with A498 renal, above 21.5 µM; with OVCAR-8 ovarian it was above 25 µM. For the same molecule, the TGI in the test with OVCAR-4 ovarian and in the test on SF-295 CNS was above 25 µM each time.
With `Cc1nc(N)nc(N)c1CCCCc1ccc(N)cc1`, the TGI in the test with HOP-62 NSCLC was found to be 18.2 µM; with SK-MEL-2 melanoma it was 21.3 µM; with LXFL 529 NSCLC, 20.4 µM; with NCI-H522 lung it was 16 µM; in the test on M14 melanoma it was 18.4 µM; with OVCAR-8 ovarian, 20.6 µM. For the same molecule, the TGI in the test with OVCAR-4 ovarian was found to be 25.8 µM; in the test with SF-295 CNS, 14.2 µM.
With `COc1ccc(-c2cc(-c3ccc(Nc4nc(Nc5ccccc5)nc(Nc5ccc(Cl)cc5)n4)cc3)nc(N)n2)cc1`, the GI50 in the test with HOP-62 NSCLC was 10.3 µM; in the test with SK-MEL-2 melanoma, 13.1 µM; with NCI-H522 lung it was 9.02 µM; in the test with M14 melanoma, 9.33 µM; in the test with A498 renal, 9.29 µM; with OVCAR-8 ovarian, 15.1 µM. Further, the GI50 with OVCAR-4 ovarian is 10.7 µM; in the test on SF-295 CNS, 7.92 µM. In addition, the TGI in the test on HOP-62 NSCLC was 33.1 µM; in the test on SK-MEL-2 melanoma, 44.1 µM; with NCI-H522 lung, 27.1 µM; in the test with M14 melanoma, 28.8 µM; with A498 renal, 20 µM; in the test with OVCAR-8 ovarian it was above 50 µM. In addition, the values for the TGI in the test with OVCAR-4 ovarian and in the test on SF-295 CNS were above 50 µM and 25.8 µM, respectively.
For the molecule `CN(C)CCNC(=O)c1cccc2c1nc(-c1ccc(F)cc1)c1ccccc12`, the TGI was 13 µM in the test with DMS 273 small cell lung; 12.9 µM in the test with HOP-62 NSCLC; 22.3 µM in the test on SK-MEL-2 melanoma; 18.7 µM with M14 melanoma; 16.2 µM in the test with A498 renal; 18.2 µM in the test on OVCAR-8 ovarian. The TGI worked out at 19.1 µM in the test with OVCAR-4 ovarian and 19.3 µM in the test with SF-295 CNS.
With `COc1cc2oc(-c3cccc(C(=O)Nc4ccc(Cl)cc4)c3)cc(=O)c2c(OC)c1OC`, the GI50 was 2.66 µM with HOP-62 NSCLC; 2.96 µM with SK-MEL-2 melanoma; 1.73 µM with NCI-H522 lung; 1.38 µM in the test on M14 melanoma; 2 µM with A498 renal; 3.44 µM in the test on OVCAR-8 ovarian. In addition, the values for the GI50 in the test with OVCAR-4 ovarian and in the test with SF-295 CNS were 3.05 µM and 1.47 µM, respectively. Further, the TGI in the test with HOP-62 NSCLC was 9.89 µM; with SK-MEL-2 melanoma it was 9.22 µM; with NCI-H522 lung, above 100 µM; in the test on M14 melanoma, 4.73 µM; in the test with A498 renal, 7.82 µM; with OVCAR-8 ovarian, above 100 µM. Further, the results for the TGI in the test with OVCAR-4 ovarian and in the test on SF-295 CNS were above 100 µM and 3.51 µM, respectively.
Regarding `CC(C)(C)c1cc(C(=O)Nc2ccccc2C(=O)NCCN)cc(C(C)(C)C)c1`, the GI50 with HOP-62 NSCLC is 1.67 µM; in the test on SK-MEL-2 melanoma it was 1.94 µM; in the test with NCI-H522 lung, 1.85 µM; in the test with M14 melanoma it was 1.91 µM; with A498 renal it was 2.38 µM; with OVCAR-8 ovarian, 2.08 µM. Moreover, the GI50 in the test with OVCAR-4 ovarian is 1.89 µM; in the test with SF-295 CNS, 1.88 µM. In addition, the TGI was determined as 3.21 µM with HOP-62 NSCLC; 3.7 µM with SK-MEL-2 melanoma; 3.82 µM in the test with NCI-H522 lung; 3.64 µM with M14 melanoma; 6.44 µM in the test with A498 renal; 4.2 µM in the test with OVCAR-8 ovarian. Besides, the TGI in the test on OVCAR-4 ovarian turned out to be 3.82 µM; with SF-295 CNS it was 3.59 µM.
Turning to `N#CCCn1[nH]c(=O)c(Cl)c(Cl)c1=O`, the TGI came to 29.6 µM in the test with SK-MEL-2 melanoma; 30.6 µM in the test with LXFL 529 NSCLC; 41.3 µM in the test with NCI-H522 lung; 41.2 µM in the test on A498 renal; 32.9 µM with OVCAR-8 ovarian; 32 µM in the test on OVCAR-4 ovarian. Moreover, the TGI with SF-295 CNS turned out to be 32.1 µM.
With `COc1cc2c(c(OC)c1OC)-c1ccc(NN(C(=O)c3ccccc3)C(=O)c3ccccc3)c(=O)cc1[C@@H](NC(C)=O)CC2` (tested in a mixture with another compound), the GI50 with HOP-62 NSCLC was 4.54 µM; with SK-MEL-2 melanoma, 3.42 µM; in the test with NCI-H522 lung, 2.01 µM; with M14 melanoma, 2.36 µM; in the test with A498 renal, 3.78 µM; in the test on OVCAR-8 ovarian it was 3.86 µM. In addition, the GI50 is 7.06 µM in the test with OVCAR-4 ovarian and 3.81 µM with SF-295 CNS. Besides, the TGI was found to be 30.3 µM in the test with HOP-62 NSCLC; 16.6 µM in the test on SK-MEL-2 melanoma; 6.18 µM with NCI-H522 lung; 6.45 µM in the test with M14 melanoma; 52 µM with A498 renal; 42.7 µM in the test with OVCAR-8 ovarian. Also, the TGI with OVCAR-4 ovarian and in the test on SF-295 CNS was above 100 µM each time.
